Data set [1] in a line: Oral bioavailability in rat. The note with it: in vivo. From the text: Compounds of the present invention are orally bioavailable.
The target in data set [2] is CYP2D6 (Homo sapiens (Human), UniProt P10635). The experiment in a line: Time dependent CYP inhibition: CYP2D6. The class given is in vitro ADME. The note with it: 30 min pre incubation ±NADPH relative to direct inhibition IC50 with no pre-incubation. The text has this: (§1) Compounds of the present invention have no time dependent CYP inhibition.
Data set [3] has as its target CYP2C19 (Homo sapiens (Human), UniProt P33261). In words: Time dependent CYP inhibition: CYP2C19. The format is in vitro ADME. The note with it: 30 min pre incubation ±NADPH relative to direct inhibition IC50 with no pre-incubation.
Excerpt: as §1

For data set [4], the system named is phospho-cdc2 (Tyr15) in HT-29 cells. The experiment in a line: Effect on phosphorylation of cdc2 at Tyr15 in HT-29 cells (PathScan ELISA). The format is cell-based. The note with it: Homo sapiens, HT-29, 8 h; HT29 cells, eight hours incubation; read-out: HT29 pCDC2 activity. On the procedure: Method 2: Determining the effect of compounds on the phosphorylation of cdc2 at Tyr15
The colorectal cancer cell lines HT-29 and HCT-116 were purchased from the ATCC and routinely maintained in McCoy's Medium (Invitrogen) supplemented with 10% Foetal Calf Serum.
The cells were trypsinised from their growing vessel and counted, 100 μL of cell suspension containing 6000 cells was pipetted into black 96 well Co-star plates and incubated overnight to allow adherence to the surface at a temperature of 37° C. and an atmosphere of 5% CO2. Test compounds were formulated in DMSO and diluted in foetal calf serum supplemented medium. Incubating medium was removed by aspiration and diluted drug supplemented medium added to each well.
The plate was returned to the incubator for an additional eight hours at 37° C. and an atmosphere of 5% CO2. Post incubation, the drug supplemented medium was aspirated from each well and the cells were washed once in ice-cold phosphate buffered saline (PBS). 100 μL of cell lysis buffer (Cell Signalling Technologies #9803) containing 20 mM Tris, 150 mM NaCl, 1 mM EDTA, 1 mM EGTA, 1% Triton-X100, 2.5 mM sodium pyrophosphate, 1 mM glycerophosphate, 1 mM Na3VO4 and 1 μg/mL leupeptin was added to each well of the 96 well plate and incubated at 4° C. for 30 min. The samples on the plate were snap frozen at −80° C. until required.
Immediately before the continuation of the assay, the sample plate was thawed and centrifuged at 4° C. for 10 min and the supernatant transferred to secondary tubes or 96 well plate.
Cell supernatant was mixed in a ratio of 1:1 with sample dilutent buffer and vortexed for one minute. 100 μL of diluted sample was pipetted into pre-coated plates containing a rabbit polyclonal antibody for phospho-cdc2 (Tyr15) (Cell Signalling Technologies PathScan kit #7176). The plate was sealed and incubated overnight at 4° C.
The plate seal was removed and the well contents aspirated, followed by 3×5 min washes with 200 μL of diluted wash buffer. Between each wash the plate was tapped firmly onto blotting paper to ensure the removal of all kit solution. 100 μL of kit detection antibody was added to each well and the plate re-sealed and incubated at 37° C. for 1 h. Post incubation the plate was washed and processed in a similar manner to that previously described.
100 μL of horseradish peroxidise-linked secondary antibody was added to each test well, the plate sealed and incubated for thirty minutes at 37° C. Post incubation, the plate was washed as previously stated, followed by the addition of 100 μL of 3,3′,5,5′ tetramethylbenzidine (TMB reagent). The plate was sealed and incubated at RT for 30 min.
100 μL of stop solution was added to each well and the underside of the plate wiped with a lint-free tissue, prior to spectrophotometric determination. Absorbance from each well was read at 450 nm within 30 min of the addition of the stop solution.
The percentage of phospho-cdc2 was calculated compared to DMSO control and plotted versus the concentration of inhibitor using GraphPad Prism. Data was fitted using non-linear regression analysis and IC50 values generated.
Background: An ELISA detects its analyte on a solid surface through an enzyme-linked reagent.

For data set [5], the target named is Wee-1 kinase (Homo sapiens (Human), UniProt P30291). The experiment in a line: Measurement of Wee-1 kinase activity (ADP-Glo). The format is biochemical. Particulars: read-out: Wee-1 IC50 activity. On the procedure: Method 1: Measurement of Wee-1 kinase activity
In the measurement of Wee-1 activity, a commercial peptide Poly(Lys Tyr(4:1)) hydrobromide was purchased from Sigma Aldrich and used as the substrate. Activated Wee-1 kinase was purchased from Invitrogen (PV3817) and an ADP-Glo luminescent kit was purchased from Promega.
All reactions took place in […] volumes in reaction buffer containing 40 mM Tris-HCl and 20 mM magnesium chloride, supplemented with 0.1 mg/mL bovine serum albumin and 2 mM DTT. Compounds were serially diluted in buffer and 5 μL of each concentration pipetted into a white 384 well plate (Sigma Aldrich M6186). A 5 μL aliquot of the Wee-1 enzyme was added to each well and the plate centrifuged for 1 min to ensure mixing of the enzyme and inhibitor.
The plate was incubated at room temperature for 30 minutes before the addition of 2.0 μg/mL of substrate and 30 μM ATP in a 5 μL aliquot. The plate was centrifuged for one minute and incubated for 1 h at RT.
15 μL of ADP-Glo stop reagent was added to each well to quench the reaction and deplete unconverted ATP. The plate was incubated for a further 40 min in the dark at RT.
30 μL of ADP-Glo kinase detection reagent was added to each well, converting ADP to ATP, catalysing the generation of luciferin by luciferase. The plate was shaken for 1 min, and incubated in the dark for an additional hour.
Luminescence from each well was detected using the Biotek Synergy4 HD plate reader and the percentage inhibition of kinase activity calculated for each inhibitor tested. Positive (kinase only) and negative (no kinase) controls were added to each plate to ensure specific interaction of kinase and inhibitor. The IC50 concentration for each inhibitor was calculated by plotting the percentage kinase inhibition against concentration of inhibitor and the curve generated by non-linear regression fitting.

Data set [6] can be described thus: CLint estimates using human liver microsomes. The class given is in vitro ADME. Particulars: pH 7.4, read-out: HLM activity (HLM CLint). Here is the method:
Method for the Determination of CLint Estimates Using Human Liver Microsomes
Test compounds (final concentration=1 μM; final DMSO concentration=0.1%) were incubated in 0.1M phosphate buffer pH 7.4 with human liver microsomes (0.5 mg of protein/mL) at 37° C. Reactions were started by addition of NADPH in 0.1M phosphate buffer pH 7.4 (final concentration 1 mM). 40 μL aliquots were removed at 2, 5, 10, 15, 20, 30, 40 and 50 min. Reactions were quenched in 80 μL of ice-cold methanol. Samples were subsequently frozen overnight then centrifuged at 3500 rpm for 20 min at 4° C. The supernatants were removed and transferred into analytical plates and analysed by LC/MS/MS.
All samples were analysed on a Waters Acquity I-Class coupled to a Waters Xevo TQD mass spectrometer. A Waters BEH C18 2.1×50 mm 1.7 μm column was used and mobile phases were water and methanol containing 0.1% formic acid as modifier. Analysis was by multiple reaction monitoring and conditions were optimised for each test compound.
From a plot of ln peak area against time, the gradient of the line is determined. Subsequently, half-life and intrinsic clearance are calculated using the following equations.

The target in data set [7] is human ether a go-go related gene (hERG) K+ channel (Homo sapiens (Human), UniProt Q12809). The experiment in a line: hERG inhibition, IonWorks patch clamp electrophysiology. The format is cell-based. The note with it: 8-point curve from 11 μM. On the procedure:
Compounds were tested for inhibition of the human ether a go-go related gene (hERG) K^+ channel using IonWorks patch clamp electrophysiology at Essen BioScience.
In general terms: Block of hERG is tested as a sign of cardiac risk.

In data set [8] the target is CYP2C9 (Homo sapiens (Human), UniProt P11712). In words: Time dependent CYP inhibition: CYP2C9. The format is in vitro ADME. The note with it: 30 min pre incubation ±NADPH relative to direct inhibition IC50 with no pre-incubation.
Excerpt: as §1

A short description of data set [9]: Rat hepatocyte assay CLint. The format is in vitro ADME. The note with it: hepatocytes. Here is the method:
(§2) Compounds of the present invention have good stability in human and/or rat hepatocyte incubations. In particular, representative examples 7, 8, 13, 18, 20 have CLint of <20 μL/min/10^6 cells in a human hepatocyte assay and/or <40 μL/min/10^6 cells in a rat hepatocyte assay.

Data set [10] has as its target CYP3A4 (Homo sapiens (Human), UniProt P08684). The experiment in a line: Time dependent CYP inhibition: CYP3A4. The format is in vitro ADME. Particulars: 30 min pre incubation ±NADPH relative to direct inhibition IC50 with no pre-incubation.
Excerpt: as §1

The nature of data set [11]: Human hepatocyte assay CLint. The format is in vitro ADME. The note with it: hepatocytes. Here is the method:
as §2

Structures can show the parent of a compound that is named as a salt.

As usually defined, the bioavailability is the share of a dose that reaches the circulation, judged against a reference dose that is usually intravenous. Low values mean little systemic uptake, high ones much systemic uptake. As a reminder, the hepatocyte CLint is the rate of metabolic loss divided by the concentration. Read a high hepatocyte CLint as rapid turnover.

Chain of Wee-1 kinase (P30291 whole entry): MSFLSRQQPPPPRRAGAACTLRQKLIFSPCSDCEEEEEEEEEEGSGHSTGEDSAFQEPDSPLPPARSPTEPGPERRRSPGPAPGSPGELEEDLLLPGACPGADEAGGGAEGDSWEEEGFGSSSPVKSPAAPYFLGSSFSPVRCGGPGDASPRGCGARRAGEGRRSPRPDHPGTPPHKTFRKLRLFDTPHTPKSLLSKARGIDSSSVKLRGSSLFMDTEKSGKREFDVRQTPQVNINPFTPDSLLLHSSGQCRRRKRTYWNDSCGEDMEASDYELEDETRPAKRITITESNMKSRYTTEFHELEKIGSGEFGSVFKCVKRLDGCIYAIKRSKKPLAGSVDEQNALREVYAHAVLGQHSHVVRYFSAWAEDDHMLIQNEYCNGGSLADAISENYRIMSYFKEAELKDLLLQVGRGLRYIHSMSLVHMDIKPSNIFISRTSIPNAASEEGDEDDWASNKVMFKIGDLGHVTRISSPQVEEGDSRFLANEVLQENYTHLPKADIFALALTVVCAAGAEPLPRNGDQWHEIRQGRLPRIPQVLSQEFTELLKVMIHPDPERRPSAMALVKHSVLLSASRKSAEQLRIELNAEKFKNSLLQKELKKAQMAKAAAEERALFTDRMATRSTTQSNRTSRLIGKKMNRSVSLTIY
Chain of CYP2C19 (P33261 whole entry): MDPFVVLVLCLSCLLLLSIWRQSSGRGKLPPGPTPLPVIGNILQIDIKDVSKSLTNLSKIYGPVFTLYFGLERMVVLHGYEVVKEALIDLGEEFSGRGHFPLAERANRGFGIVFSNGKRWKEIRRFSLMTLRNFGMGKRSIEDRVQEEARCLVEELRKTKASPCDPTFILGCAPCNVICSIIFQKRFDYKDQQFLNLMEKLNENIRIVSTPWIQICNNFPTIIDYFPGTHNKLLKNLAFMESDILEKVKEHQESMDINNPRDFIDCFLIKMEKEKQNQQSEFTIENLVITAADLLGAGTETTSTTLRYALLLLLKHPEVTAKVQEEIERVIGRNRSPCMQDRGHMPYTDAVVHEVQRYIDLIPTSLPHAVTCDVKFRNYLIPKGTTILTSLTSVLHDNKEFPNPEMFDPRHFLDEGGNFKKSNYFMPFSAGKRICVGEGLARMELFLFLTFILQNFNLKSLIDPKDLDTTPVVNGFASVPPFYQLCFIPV
Chain of human ether a go-go related gene (hERG) K+ channel (Q12809 whole entry): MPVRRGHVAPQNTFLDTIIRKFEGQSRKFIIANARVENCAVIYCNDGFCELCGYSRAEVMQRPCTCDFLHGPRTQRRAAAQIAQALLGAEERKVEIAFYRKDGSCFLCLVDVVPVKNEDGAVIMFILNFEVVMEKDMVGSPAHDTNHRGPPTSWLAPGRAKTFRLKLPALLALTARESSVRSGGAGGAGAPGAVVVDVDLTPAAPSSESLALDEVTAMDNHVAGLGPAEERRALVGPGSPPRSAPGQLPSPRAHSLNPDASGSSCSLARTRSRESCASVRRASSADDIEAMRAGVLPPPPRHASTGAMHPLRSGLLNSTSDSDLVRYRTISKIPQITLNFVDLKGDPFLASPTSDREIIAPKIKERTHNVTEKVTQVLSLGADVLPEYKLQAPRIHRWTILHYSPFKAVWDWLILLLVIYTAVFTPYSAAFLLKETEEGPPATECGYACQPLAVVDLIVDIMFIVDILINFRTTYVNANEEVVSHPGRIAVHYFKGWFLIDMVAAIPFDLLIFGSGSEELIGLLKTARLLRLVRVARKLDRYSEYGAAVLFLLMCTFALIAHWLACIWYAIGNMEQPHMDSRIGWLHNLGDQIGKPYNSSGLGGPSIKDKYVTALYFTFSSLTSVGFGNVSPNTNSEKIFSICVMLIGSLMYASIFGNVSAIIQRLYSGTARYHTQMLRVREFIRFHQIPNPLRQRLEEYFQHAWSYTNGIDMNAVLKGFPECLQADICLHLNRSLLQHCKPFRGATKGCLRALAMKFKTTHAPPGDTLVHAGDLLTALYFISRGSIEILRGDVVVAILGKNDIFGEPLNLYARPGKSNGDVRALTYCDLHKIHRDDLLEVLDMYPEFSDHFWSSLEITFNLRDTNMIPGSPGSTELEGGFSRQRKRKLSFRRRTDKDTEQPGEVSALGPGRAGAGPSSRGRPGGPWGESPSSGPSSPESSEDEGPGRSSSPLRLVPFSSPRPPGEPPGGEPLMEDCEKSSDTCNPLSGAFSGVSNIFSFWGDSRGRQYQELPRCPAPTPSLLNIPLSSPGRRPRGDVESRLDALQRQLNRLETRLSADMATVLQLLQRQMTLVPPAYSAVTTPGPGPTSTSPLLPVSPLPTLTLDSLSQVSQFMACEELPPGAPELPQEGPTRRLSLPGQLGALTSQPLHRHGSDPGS
Chain of CYP2D6 (P10635 whole entry): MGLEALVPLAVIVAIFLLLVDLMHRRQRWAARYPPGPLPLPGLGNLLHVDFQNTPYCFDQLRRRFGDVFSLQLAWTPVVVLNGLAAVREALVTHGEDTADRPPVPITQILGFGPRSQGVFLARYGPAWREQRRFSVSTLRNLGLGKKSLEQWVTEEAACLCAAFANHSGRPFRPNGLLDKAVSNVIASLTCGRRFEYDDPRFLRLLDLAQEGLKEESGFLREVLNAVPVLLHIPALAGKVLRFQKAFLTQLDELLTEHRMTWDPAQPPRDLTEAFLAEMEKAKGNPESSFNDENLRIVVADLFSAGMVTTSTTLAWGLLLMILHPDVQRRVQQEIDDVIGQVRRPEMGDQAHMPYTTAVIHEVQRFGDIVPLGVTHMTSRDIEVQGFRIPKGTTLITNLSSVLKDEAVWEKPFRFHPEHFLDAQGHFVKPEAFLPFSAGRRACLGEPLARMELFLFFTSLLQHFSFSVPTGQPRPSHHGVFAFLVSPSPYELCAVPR
Chain of CYP2C9 (P11712 whole entry): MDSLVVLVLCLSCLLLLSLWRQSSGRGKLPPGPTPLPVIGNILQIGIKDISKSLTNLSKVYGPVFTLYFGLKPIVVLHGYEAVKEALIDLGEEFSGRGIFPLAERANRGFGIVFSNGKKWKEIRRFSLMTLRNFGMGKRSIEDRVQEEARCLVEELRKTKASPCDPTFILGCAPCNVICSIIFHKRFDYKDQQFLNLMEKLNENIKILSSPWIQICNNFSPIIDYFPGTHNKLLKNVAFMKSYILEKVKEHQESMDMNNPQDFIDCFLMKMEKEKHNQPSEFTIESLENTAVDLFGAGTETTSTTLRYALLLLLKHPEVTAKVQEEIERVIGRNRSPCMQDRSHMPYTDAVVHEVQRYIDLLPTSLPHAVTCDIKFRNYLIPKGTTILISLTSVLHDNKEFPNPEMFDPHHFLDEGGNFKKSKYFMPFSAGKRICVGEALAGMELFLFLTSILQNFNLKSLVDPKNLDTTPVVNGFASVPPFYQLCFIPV
Chain of CYP3A4 (P08684 whole entry): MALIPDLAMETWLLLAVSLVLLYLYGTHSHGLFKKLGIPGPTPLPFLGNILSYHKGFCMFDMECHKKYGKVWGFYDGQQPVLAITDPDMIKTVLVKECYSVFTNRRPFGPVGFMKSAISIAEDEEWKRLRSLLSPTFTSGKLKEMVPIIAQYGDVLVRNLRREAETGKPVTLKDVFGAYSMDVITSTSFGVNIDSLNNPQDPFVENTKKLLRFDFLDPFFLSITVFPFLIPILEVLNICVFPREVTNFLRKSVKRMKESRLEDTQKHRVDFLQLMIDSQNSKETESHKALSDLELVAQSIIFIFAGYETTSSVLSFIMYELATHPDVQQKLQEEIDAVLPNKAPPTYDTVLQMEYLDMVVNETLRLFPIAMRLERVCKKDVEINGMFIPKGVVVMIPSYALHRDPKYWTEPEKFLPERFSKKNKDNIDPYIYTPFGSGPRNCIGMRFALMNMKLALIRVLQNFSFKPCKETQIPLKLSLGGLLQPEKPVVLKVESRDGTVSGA

Turning to `CNCc1cc(Nc2ncc3c(=O)n(-c4c(Cl)cccc4Cl)ccc3n2)ccc1N1CCOCC1` [Example 20, 6-(2,6-Dichlorophenyl)-2-((3-((methylamino)methyl)-4-morpholinophenyl)amino)pyrido[4,3-d]pyrimidin-5(6H)-one], in [1], the bioavailability is > 25%. The “time dependent inhibition of CYP2D6: shift in IC50” value in data set [2] is < 2 fold. Moreover, the “time dependent inhibition of CYP2C19: shift in IC50” value in [3] was < 2 fold. The results for the IC50 in [4], in data set [5] and in data set [7] were ≤ 100 nM, < 10 nM and ≥ 10000 nM, respectively. In addition, the microsomal CLint at 1 μM in data set [6] was ≤ 20 µL/min/mg. Also, the “time dependent inhibition of CYP2C9: shift in IC50” value in data set [8] is < 2 fold. The hepatocyte CLint was < 40 µL/min/1e6 cells in data set [9] and < 20 µL/min/1e6 cells in data set [11]. In addition, the “time dependent inhibition of CYP3A4: shift in IC50” value in data set [10] is listed as < 2 fold.
Regarding `COc1cc(Nc2ncc3c(=O)n(-c4c(Cl)cccc4Cl)ccc3n2)ccc1N1CCNCC1` [Example 13, 6-(2,6-Dichlorophenyl)-2-((3-methoxy-4-(piperazin-1-yl)phenyl)amino)pyrido[4,3-d]pyrimidin-5(6H)-one, HCl], the bioavailability in [1] was > 25%. The “time dependent inhibition of CYP2D6: shift in IC50” value in data set [2] is recorded as < 2 fold. Also, the “time dependent inhibition of CYP2C19: shift in IC50” value in data set [3] is recorded as < 2 fold. In addition, the results for the IC50 in data set [4], in data set [5] and in data set [7] were ≤ 100 nM, < 10 nM and ≥ 10000 nM, respectively. The microsomal CLint at 1 μM in data set [6] was ≤ 20 µL/min/mg. In data set [8], the “time dependent inhibition of CYP2C9: shift in IC50” value was < 2 fold. In addition, the hepatocyte CLint in [9] was < 40 µL/min/1e6 cells; in data set [11], < 20 µL/min/1e6 cells. Besides, the “time dependent inhibition of CYP3A4: shift in IC50” value in data set [10] was < 2 fold.

The record behind these values is patent US9714244B2, “Substituted pyrido[4,3-d]pyrimidines as Wee-1 inhibitors” (ALMAC DISCOVERY LIMITED, priority 2013, dated 2017).
